Reference: PubChem BioAssay (NCI)
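Following 48 hours of exposure in 96-well plates, responses at five concentrations were used to interpolate endpoints linearly. Abbreviation: GI50, concentration required for 50% inhibition of growth. TGI marks complete inhibition of growth.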

What was measured:
Experiment in all cases: inhibition of tumour cell growth, NCI panel, 48 h
DMS 273 small cell lung = test system: DMS 273 small cell lung
COLO 205 colon = test system: COLO 205 colon
M19-MEL melanoma = test system: M19-MEL melanoma
HOP-62 NSCLC = test system: HOP-62 NSCLC
KM12 colon = test system: KM12 colon
LOX IMVI melanoma = test system: LOX IMVI melanoma
EKVX NSCLC = test system: EKVX NSCLC
HOP-92 NSCLC = test system: HOP-92 NSCLC
KM20L2 colon = test system: KM20L2 colon
HCC-2998 colon = test system: HCC-2998 colon

| SMILES | TGI (DMS 273 small cell lung) [µM] | TGI (COLO 205 colon) [µM] | TGI (M19-MEL melanoma) [µM] | TGI (HOP-62 NSCLC) [µM] | TGI (KM12 colon) [µM] | TGI (LOX IMVI melanoma) [µM] | TGI (EKVX NSCLC) [µM] | TGI (HOP-92 NSCLC) [µM] | TGI (KM20L2 colon) [µM] | TGI (HCC-2998 colon) [µM] | GI50 (DMS 273 small cell lung) [µM] | GI50 (COLO 205 colon) [µM] | GI50 (M19-MEL melanoma) [µM] | GI50 (HOP-62 NSCLC) [µM] | GI50 (KM12 colon) [µM] | GI50 (HCC-2998 colon) [µM] | GI50 (LOX IMVI melanoma) [µM] | GI50 (EKVX NSCLC) [µM] | GI50 (HOP-92 NSCLC) [µM] | GI50 (KM20L2 colon) [µM] |
| --- | --- | --- | --- | --- | --- | --- | --- | --- | --- | --- | --- | --- | --- | --- | --- | --- | --- | --- | --- | --- |
| C#CCC[C@@H]1O[C@@]1(C)CC/C=C(\C)CC/C=C/C=O | 39 | > 100 | 48.1 | > 100 | > 100 | 35.2 | > 100 | 63.5 | > 100 |  |  |  |  |  |  |  |  |  |  |  |
| O=C1c2ccccc2C2(O)Nc3cc(O)ccc3C12O (stereo unspecified) | > 100 | > 100 |  | > 100 | > 100 | > 100 | > 100 | > 100 | > 100 |  |  |  |  |  |  |  |  |  |  |  |
| O=C(NCCCCCCCCNC(=O)c1cnc2ccccc2n1)c1cnc2ccccc2n1 | > 100 | > 100 | > 100 | > 100 | > 100 | > 100 | > 100 | > 100 |  |  |  |  |  |  |  |  |  |  |  |  |
| CC1=CC2CC(C)=C(CC[C@]3(C)CC[C@H]([C@@H](C)C(=O)O)OO3)C(C)(C)C2CC1 (stereo partly specified) | 1.09 | 1.36 | 3.05 | 3.41 | 0.316 | 0.207 | 3.64 | 0.369 | 2.63 | 0.818 |  |  |  |  |  |  |  |  |  |  |
| CN(C)c1ccc2c(c1)C(=O)N(OS(=O)(=O)c1ccc([N+](=O)[O-])cc1)C2=O | 43.9 | 54.6 | 52.7 | > 100 | 75.5 |  | > 100 | > 10 |  | 60.3 |  |  |  |  |  |  |  |  |  |  |
| COc1cc(CCc2cccnc2)cc(OC)c1OC | > 100 | > 100 | > 100 | > 100 | > 100 | > 100 | > 100 | > 100 | > 100 |  |  |  |  |  |  |  |  |  |  |  |
| CCC[CH2][Sn]([CH2]CCC)([O]C(=O)c1c(F)cccc1F)[O]C(=O)c1c(F)cccc1F | 2.27 | 1.74 | 1.43 | 3.69 | 2.83 | 1.41 | 2.22 | 1.81 | 2.98 | 2.41 | 1.07 | 0.574 | 0.364 | 2.22 | 1.51 | 1.18 | 0.353 | 1.04 | 0.44 | 1.61 |
| N#Cc1cccc(N2C(=O)c3c(c(-c4ccccc4)c(-c4ccc(Sc5ccc(-c6c(-c7ccccc7)c7c(c(-c8ccccc8)c6-c6ccccc6)C(=O)N(c6cccc(C#N)c6)C7=O)cc5)cc4)c(-c4ccccc4)c3-c3ccccc3)C2=O)c1 | > 100 | > 100 |  | > 100 | > 100 | > 100 | > 100 | 99.4 | > 100 | > 100 |  |  |  |  |  |  |  |  |  |  |
| FC(F)(F)C1(Cl)C(c2ccccc2)=C1c1ccccc1 | 27.6 | 30.3 | 27.7 | 32.7 | 29 | 23.8 | 29.9 | 28.4 | 30.1 | 31.8 |  |  |  |  |  |  |  |  |  |  |
